Organism: Rattus norvegicus
Assay: Open TG-GATES - Regimen: Single
Type: toxicity, organism-based, Sprague-Dawley
Parameters: regimen Single, gender Male, age 6 weeks
Settings: in vivo, ip, 400 mg/kg, route intraperitoneal injection, dose level High; for APTT / Bas / Eos / Fbg / Hb / Ht / Lym / MCH / MCHC / MCV / Mono / Neu / PT / Plat / RBC / Ret / WBC: tissue Blood; for KIDNEY_L / KIDNEY_R / KIDNEY_TOTAL: tissue Kidney; for LIVER: tissue Liver; for A/G / ALP / ALT / AST / BUN / CRE / Ca / Cl / DBIL / GLC / IP / K / LDH / Na / PL / RALB / TBIL / TC / TG / TP / gamma-GTP: tissue Plasma

SMILES: CC(C)=CC(=O)C=C(C)C [PHORONE]
- TERMINAL_BW (3 h): 224 g
- APTT (3 h): 18 s
- Bas (3 h): 0%
- Eos (3 h): 0.8%
- Fbg (3 h): 206.6 mg/dL
- Hb (3 h): 13.7 g/dL
- Ht (3 h): 40.8%
- Lym (3 h): 81%
- MCH (3 h): 21.9 pg
- MCHC (3 h): 33.6%
- MCV (3 h): 65.1 fL
- Mono (3 h): 5%
- Neu (3 h): 13.6%
- PT (3 h): 12.9 s
- Plat (3 h): 130 x10_4/uL
- RBC (3 h): 626.2 x10_4/ul
- Ret (3 h): 9.1%
- WBC (3 h): 81.1 x10_2/uL
- KIDNEY_L (3 h): 0.9 g
- KIDNEY_R (3 h): 1 g
- KIDNEY_TOTAL (3 h): 1.9 g
- LIVER (3 h): 9.4 g
- A/G (3 h): 2.4
- ALP (3 h): 931 IU/L
- ALT (3 h): 51 IU/L
- AST (3 h): 106.6 IU/L
- BUN (3 h): 23.4 mg/dL
- CRE (3 h): 1.1 mg/dL
- Ca (3 h): 11 mg/dL
- Cl (3 h): 99.4 meq/L
- DBIL (3 h): 0.046 mg/dL
- GLC (3 h): 292.8 mg/dL
- IP (3 h): 9.8 mg/dL
- K (3 h): 4.6 meq/L
- LDH (3 h): 282.6 IU/L
- Na (3 h): 136 meq/L
- PL (3 h): 110.6 mg/dL
- RALB (3 h): 3.8 g/dL
- TBIL (3 h): 0.9 mg/dL
- TC (3 h): 67 mg/dL
- TG (3 h): 18 mg/dL
- TP (3 h): 5.4 g/dL
- gamma-GTP (3 h): 1.8 IU/L
- TERMINAL_BW (6 h): 215 g
- APTT (6 h): 17.1 s
- Bas (6 h): 0%
- Eos (6 h): 1.2%
- Fbg (6 h): 208.2 mg/dL
- Hb (6 h): 13.4 g/dL
- Ht (6 h): 40.7%
- Lym (6 h): 61%
- MCH (6 h): 21.4 pg
- MCHC (6 h): 33%
- MCV (6 h): 64.8 fL
- Mono (6 h): 8%
- Neu (6 h): 30.2%
- PT (6 h): 13.9 s
- Plat (6 h): 123.8 x10_4/uL
- RBC (6 h): 627.6 x10_4/ul
- Ret (6 h): 9.2%
- WBC (6 h): 84.8 x10_2/uL
- KIDNEY_L (6 h): 0.9 g
- KIDNEY_R (6 h): 1 g
- KIDNEY_TOTAL (6 h): 1.9 g
- LIVER (6 h): 8.6 g
- A/G (6 h): 2.2
- ALP (6 h): 925 IU/L
- ALT (6 h): 73.2 IU/L
- AST (6 h): 174 IU/L
- BUN (6 h): 23 mg/dL
- CRE (6 h): 0.7 mg/dL
- Ca (6 h): 10.5 mg/dL
- Cl (6 h): 106.4 meq/L
- DBIL (6 h): 0.048 mg/dL
- GLC (6 h): 168 mg/dL
- IP (6 h): 11.2 mg/dL
- K (6 h): 4.4 meq/L
- LDH (6 h): 277.8 IU/L
- Na (6 h): 138.2 meq/L
- PL (6 h): 110.4 mg/dL
- RALB (6 h): 3.7 g/dL
- TBIL (6 h): 1 mg/dL
- TC (6 h): 67.2 mg/dL
- TG (6 h): 24.4 mg/dL
- TP (6 h): 5.5 g/dL
- gamma-GTP (6 h): 1.4 IU/L
- TERMINAL_BW (9 h): 210.1 g
- APTT (9 h): 17.1 s
- Bas (9 h): 0%
- Eos (9 h): 1%
- Fbg (9 h): 209.8 mg/dL
- Hb (9 h): 13.4 g/dL
- Ht (9 h): 40.7%
- Lym (9 h): 56.4%
- MCH (9 h): 21.6 pg
- MCHC (9 h): 33%
- MCV (9 h): 65.4 fL
- Mono (9 h): 8%
- Neu (9 h): 35%
- PT (9 h): 13.9 s
- Plat (9 h): 123.6 x10_4/uL
- RBC (9 h): 622.2 x10_4/ul
- Ret (9 h): 10.3%
- WBC (9 h): 125.6 x10_2/uL
- KIDNEY_L (9 h): 1 g
- KIDNEY_R (9 h): 1 g
- KIDNEY_TOTAL (9 h): 2 g
- LIVER (9 h): 8.3 g
- A/G (9 h): 2.1
- ALP (9 h): 915.4 IU/L
- ALT (9 h): 60.2 IU/L
- AST (9 h): 166.6 IU/L
- BUN (9 h): 23.8 mg/dL
- CRE (9 h): 0.6 mg/dL
- Ca (9 h): 10.9 mg/dL
- Cl (9 h): 104.6 meq/L
- DBIL (9 h): 0.06 mg/dL
- GLC (9 h): 155.2 mg/dL
- IP (9 h): 11.6 mg/dL
- K (9 h): 4.1 meq/L
- LDH (9 h): 257 IU/L
- Na (9 h): 138.2 meq/L
- PL (9 h): 107.4 mg/dL
- RALB (9 h): 3.9 g/dL
- TBIL (9 h): 0.8 mg/dL
- TC (9 h): 71 mg/dL
- TG (9 h): 38.6 mg/dL
- TP (9 h): 5.8 g/dL
- gamma-GTP (9 h): 1.2 IU/L
- TERMINAL_BW (24 h): 201.7 g
- APTT (24 h): 24.9 s
- Bas (24 h): 0%
- Eos (24 h): 0.4%
- Fbg (24 h): 190.4 mg/dL
- Hb (24 h): 14.1 g/dL
- Ht (24 h): 42.5%
- Lym (24 h): 77%
- MCH (24 h): 21.6 pg
- MCHC (24 h): 33.1%
- MCV (24 h): 65.1 fL
- Mono (24 h): 3.2%
- Neu (24 h): 19.4%
- PT (24 h): 20 s
- Plat (24 h): 121.3 x10_4/uL
- RBC (24 h): 652.2 x10_4/ul
- Ret (24 h): 7.6%
- WBC (24 h): 140.6 x10_2/uL
- KIDNEY_L (24 h): 1.1 g
- KIDNEY_R (24 h): 1.1 g
- KIDNEY_TOTAL (24 h): 2.1 g
- LIVER (24 h): 9.4 g
- A/G (24 h): 2.2
- ALP (24 h): 828.6 IU/L
- ALT (24 h): 296.8 IU/L
- AST (24 h): 1408.4 IU/L
- BUN (24 h): 19.2 mg/dL
- CRE (24 h): 0.5 mg/dL
- Ca (24 h): 10.2 mg/dL
- Cl (24 h): 110.6 meq/L
- DBIL (24 h): 0.2 mg/dL
- GLC (24 h): 167.2 mg/dL
- IP (24 h): 8.4 mg/dL
- K (24 h): 3.9 meq/L
- LDH (24 h): 4785 IU/L
- Na (24 h): 139.2 meq/L
- PL (24 h): 97.6 mg/dL
- RALB (24 h): 3.7 g/dL
- TBIL (24 h): 0.6 mg/dL
- TC (24 h): 56.8 mg/dL
- TG (24 h): 23.2 mg/dL
- TP (24 h): 5.4 g/dL
- gamma-GTP (24 h): 0.8 IU/L

From ChEMBL document CHEMBL3885861, “Open TG-GATES”
